Drawing on ChEMBL document CHEMBL3045804, “Synthesis and Herbicidal Activity of 2-Benzylamino-4-methyl-6-trifluoromethyl-1, 3, 5-triazune Derivatives” (J Pestic Sci, 1998), this text covers Activity for six compounds.

Holding throughout (type): functional
Assay [1] relates to Chenopodium album. The assay can be described thus: Herbicidal activity against Chenopodium album assessed as killing at 100 g/10 acre measured after 3 weeks by pre-emergence/field application test.
For assay [2], the system named is Rotala indica. Briefly: Herbicidal activity against Rotala indica assessed as killing at 100 g/10 acre measured after 3 weeks by pre-emergence/paddy application test.
Assay [3] relates to Digitaria ciliaris. Briefly: Herbicidal activity against Digitaria ciliaris assessed as killing at 100 g/10 acre measured after 3 weeks by pre-emergence/field application test.
The test system of assay [4] is Echinochloa crus-galli. The assay can be described thus: Herbicidal activity against Echinochloa crus-galli (barnyard grass) assessed as killing at 100 g/10 acre measured after 3 weeks by pre-emergence/field application test.
In assay [5] the test system is Pontederia vaginalis. Briefly: Herbicidal activity against Monochoria vaginalis assessed as killing at 100 g/10 acre measured after 3 weeks by pre-emergence/paddy application test.
The test system of assay [6] is Stellaria media. Briefly: Herbicidal activity against Stellaria media assessed as killing at 100 g/10 acre measured after 3 weeks by pre-emergence/field application test.
The subject of assay [7] is Echinochloa oryzicola. The assay can be described thus: Herbicidal activity against Echinochloa oryzicola assessed as killing at 100 g/10 acre measured after 3 weeks by pre-emergence/paddy application test.
The subject of assay [8] is Echinochloa crus-galli. The assay can be described thus: Herbicidal activity against Echinochloa crus-galli (barnyard grass) assessed as killing at 100 g/10 acre measured after 3 weeks by post-emergence/foliar application test.
The test system of assay [9] is Chenopodium album. Briefly: Herbicidal activity against Chenopodium album assessed as killing at 100 g/10 acre measured after 3 weeks by post-emergence/foliar application test.
Assay [10] relates to Schoenoplectiella juncoides. Briefly: Herbicidal activity against Schoenoplectiella juncoides assessed as killing at 100 g/10 acre measured after 3 weeks by pre-emergence/paddy application test.
The test system of assay [11] is Stellaria media. The assay can be described thus: Herbicidal activity against Stellaria media assessed as killing at 100 g/10 acre measured after 3 weeks by post-emergence/foliar application test.
The test system of assay [12] is Digitaria ciliaris. Briefly: Herbicidal activity against Digitaria ciliaris assessed as killing at 100 g/10 acre measured after 3 weeks by post-emergence/foliar application test.
Assay [13] relates to Stellaria media. The assay can be described thus: Herbicidal activity against Stellaria media assessed as killing at 800 g/10 acre measured after 3 weeks by pre-emergence/field application test.
The subject of assay [14] is Digitaria ciliaris. Briefly: Herbicidal activity against Digitaria ciliaris assessed as killing at 400 g/10 acre measured after 3 weeks by post-emergence/foliar application test.
The test system of assay [15] is Digitaria ciliaris. Briefly: Herbicidal activity against Digitaria ciliaris assessed as killing at 800 g/10 acre measured after 3 weeks by pre-emergence/field application test.
Assay [16] deals with Schoenoplectiella juncoides. The assay can be described thus: Herbicidal activity against Schoenoplectiella juncoides assessed as killing at 800 g/10 acre measured after 3 weeks by pre-emergence/paddy application test.
In assay [17] the test system is Rotala indica. Briefly: Herbicidal activity against Rotala indica assessed as killing at 800 g/10 acre measured after 3 weeks by pre-emergence/paddy application test.
Assay [18] concerns Stellaria media. The assay can be described thus: Herbicidal activity against Stellaria media assessed as killing at 400 g/10 acre measured after 3 weeks by post-emergence/foliar application test.
The subject of assay [19] is Chenopodium album. Briefly: Herbicidal activity against Chenopodium album assessed as killing at 800 g/10 acre measured after 3 weeks by pre-emergence/field application test.
Assay [20] concerns Echinochloa crus-galli. The assay can be described thus: Herbicidal activity against Echinochloa crus-galli (barnyard grass) assessed as killing at 800 g/10 acre measured after 3 weeks by pre-emergence/field application test.
The test system of assay [21] is Chenopodium album. Briefly: Herbicidal activity against Chenopodium album assessed as killing at 400 g/10 acre measured after 3 weeks by post-emergence/foliar application test.
Assay [22] relates to Echinochloa crus-galli. The assay can be described thus: Herbicidal activity against Echinochloa crus-galli (barnyard grass) assessed as killing at 400 g/10 acre measured after 3 weeks by post-emergence/foliar application test.
In assay [23] the test system is Echinochloa oryzicola. Briefly: Herbicidal activity against Echinochloa oryzicola assessed as killing at 800 g/10 acre measured after 3 weeks by pre-emergence/paddy application test.
For assay [24], the system named is Pontederia vaginalis. The assay can be described thus: Herbicidal activity against Monochoria vaginalis assessed as killing at 800 g/10 acre measured after 3 weeks by pre-emergence/paddy application test.

Turning to `Cc1ccc(CNc2nc(C)nc(C(F)(F)F)n2)cc1`, the Activity with Chenopodium album [1] came out at 91%; with Rotala indica [2], 76%; in the assay with Digitaria ciliaris [3] it was 1%; in the assay on Echinochloa crus-galli [4], 76%; in the assay on Pontederia vaginalis [5] it was 26%; with Stellaria media [6] it was 91%. In addition, the Activity is listed as 51% in the assay on Echinochloa oryzicola [7]; 1% in the assay with Echinochloa crus-galli [8]; 91% with Chenopodium album [9]; 0% in [10]; 100% with Stellaria media [11]; 0% in the assay with Digitaria ciliaris [12].
Turning to `c1ccc(CNc2ncncn2)cc1`, the Activity (in the assay on Stellaria media [13]; with Digitaria ciliaris [14]; in the assay with Digitaria ciliaris [15]; in assay [16]; with Rotala indica [17]; with Stellaria media [18]) was 0% each time. Also, the Activity in the assay on Chenopodium album [19], with Echinochloa crus-galli [20], in the assay on Chenopodium album [21], in the assay with Echinochloa crus-galli [22], with Echinochloa oryzicola [23] and in the assay on Pontederia vaginalis [24] was 0% in each case.
With `Cc1ncnc(NCc2ccccc2)n1`, the Activity (in the assay with Stellaria media [13]; in the assay on Digitaria ciliaris [14]; in the assay on Digitaria ciliaris [15]; in [16]; in the assay on Rotala indica [17]; in the assay on Stellaria media [18]) was 0% in each case. Further, the Activity in the assay with Chenopodium album [19] stood at 0%; in the assay with Echinochloa crus-galli [20] it was 0%; in the assay on Chenopodium album [21] it was 0%; in the assay with Echinochloa crus-galli [22] it was 0%; in the assay with Echinochloa oryzicola [23], 51%; with Pontederia vaginalis [24], 0%.
For `Cc1nc(NCc2ccccc2)nc(-c2ccccc2)n1`, the Activity (with Stellaria media [13]; with Digitaria ciliaris [14]; in the assay with Digitaria ciliaris [15]; in assay [16]; in the assay on Rotala indica [17]; in the assay with Stellaria media [18]) was 0% each time. Moreover, the Activity in the assay with Chenopodium album [19], in the assay with Echinochloa crus-galli [20], in the assay with Chenopodium album [21], in the assay with Echinochloa crus-galli [22], in the assay on Echinochloa oryzicola [23] and in the assay with Pontederia vaginalis [24] was 0% throughout.
Take `CC(C)c1nc(NCc2ccccc2)nc(C(F)(F)F)n1`: the Activity in the assay on Stellaria media [13] was 26%; with Digitaria ciliaris [14], 0%; with Digitaria ciliaris [15] it was 76%; in assay [16] it was 100%; in the assay on Rotala indica [17], 91%; in the assay with Stellaria media [18], 0%. The Activity with Chenopodium album [19] is recorded as 76%; with Echinochloa crus-galli [20], 76%; in the assay on Chenopodium album [21], 0%; in the assay with Echinochloa crus-galli [22], 0%; in the assay on Echinochloa oryzicola [23] it was 100%; with Pontederia vaginalis [24] it was 100%.
In the case of `Cc1nc(NCc2ccccc2)nc(C(Cl)(Cl)Cl)n1`, the Activity with Stellaria media [13] amounted to 0%; with Digitaria ciliaris [14], 0%; with Digitaria ciliaris [15], 0%; in assay [16], 51%; in the assay with Rotala indica [17], 91%; with Stellaria media [18] it was 0%. The Activity in the assay on Chenopodium album [19] came out at 0%; in the assay on Echinochloa crus-galli [20], 0%; in the assay on Chenopodium album [21], 0%; in the assay on Echinochloa crus-galli [22], 0%; in the assay on Echinochloa oryzicola [23], 76%; in the assay on Pontederia vaginalis [24] it was 100%.
